For one series, the system named is CNE-2Z. The series can be described thus: Antiproliferation assay (Alamar Blue), CNE-2Z. Format: cell-based. To be noted: Homo sapiens, CNE2Z, nasopharyngeal cancer, read-out: EC50 of YL001. The method, then:
(§1) Cytotoxic activities of the compounds of interest were investigated with human cancer cell lines using the Alamar Blue assay. Cells (5 × 10^3 cells/well) were seeded into 96-well plates (Corning, 3603). Various sample concentrations (compounds of interest) were added to each well in duplicate, and incubated at 37°C with 5% CO2 for two days such that cells were in the exponential growth phase at the time of drug addition. Ten microliters of the Alamar Blue Solution (Invitrogen, Alamar Blue) were added to each well and incubated at 37°C for up to 2 hours in a humidified, 5% CO2 atmosphere. After incubation, florescence was measured using a microplate reader (Tecan) at an excitation wavelength of 540 nm and emission of 590 nm. Each inhibitory concentration was measured in triplicate, and averaged data points ± SD are shown. Statistical analysis was carried out with GraphPad Prism 5 and the fifty-percent effective concentration is expressed as EC50.
A general note: Alamar Blue is a resazurin reagent that responds to reducing activity.

Another series deals with MCF10A. The series is described as follows: Antiproliferation assay, normal breast cell line MCF10A. In kind it is cell-based. The method, then: as §1
The test system of the next series is Huh7. The series can be described thus: Antiproliferation assay (Alamar Blue), Huh7. In kind it is cell-based. To be noted: Homo sapiens, Huh-7; Huh7, liver cancer; read-out: EC50 of YL001. On the procedure: as §1
A further series relates to MCF-7. The series is described as follows: Antiproliferation assay (Alamar Blue), MCF-7. In kind it is cell-based. To be noted: Homo sapiens, MCF7; MCF-7, breast cancer; read-out: EC50 of YL001. On the procedure:
as §1

In a further series the test system is HCT116. The series is described as follows: Antiproliferation assay (Alamar Blue), HCT116. In kind it is cell-based. To be noted: Homo sapiens, HCT-116; HCT116, colon cancer; read-out: EC50 of YL001. The method, then:
as §1

The subject of a further series is A549. The series can be described thus: Antiproliferation assay (Alamar Blue), A549. Format: cell-based. The following applies: Homo sapiens; A549, lung cancer; read-out: EC50 of YL001. The method, then:
as §1

Another series relates to B16. The series is described as follows: Antiproliferation assay (Alamar Blue), B16. Format: cell-based. To be noted: B16, mouse melanoma; read-out: EC50 of YL001.
For a further series, the system named is B16 melanoma xenograft. The series can be described thus: B16 melanoma xenograft model. In kind it is in vivo. The method, then: B16 cells (1 × 10^6 cells) were inoculated s.c. into 6-week old C57BL/6 mice. Tumor volume was calculated as: V = 1/2× L (long axis)×W^2 (short axis). When the volume of tumor was between 50 to 100 mm^3, YL001 was administered i.p. daily on days 1 to 10 at 200 mg/kg. Doses and schedules were determined by tolerance studies. Mice were kept under specific pathogen-free conditions, and all animal experiments were approved by the Committee on Animal Research at our institute.
Vehicle (10% (v%) N,N-Dimethylacetamide (DMAC) in 200 μL olive oil per 20 g mouse) was administered daily i.p. as a control on days 1 to 10. Drug efficiency was expressed as the ratio of the mean experimental V/V0 value to that of the control group [treated versus control (T/C) ratio], where V is the tumor volume on the day of evaluation and V0 is the tumor volume on the day of initial treatment with the drug. Drug efficiency was also evaluated by median survival. All statistical analysis was performed using Graphpad Prism 5.

The next series has as its system U87. The series can be described thus: Antiproliferation assay (Alamar Blue), U87. Format: cell-based. To be noted: Homo sapiens, U-87 MG; U87, brain cancer; read-out: EC50 of YL001. The method, then:
as §1

The target of a further series is Eg5 (Homo sapiens, UniProt P52732). The series can be described thus: Inhibition of Eg5 ATPase activity. Format: biochemical. To be noted: read-out: Enzyme EC50. The method, then: All experiments were performed as previously described. Data were analyzed using GraphPad Prism 5 and Microsoft Excel to obtain EC50 values. […] Each inhibitory concentration was measured in triplicate, and averaged data points ± SD are shown.

Series [1] is described as follows: Dose range testing in healthy mice without tumor. Format: in vivo. To be noted: healthy B6 mice without tumor; taking into consideration the solubility.
The subject of a further series is HT1080. The series can be described thus: Antiproliferation assay (Alamar Blue), HT1080. In kind it is cell-based, Human. The following applies: read-out: EC50 of YL001. The method, then: as §1
A short description of series [2]: Nucleophilic addition assay. To be noted: incubated with cysteine and lysine for 24 hours at 37°C. The method, then: 0.5 mmol YL001 was solved in a solution of THF/H2O (v:v = 1:1) and stirred with nucleophiles (0.5 mmol L-cysteine or L-lysine) at 37°C for 24 hours. Products were then validated by HRMS.

Each structure is given as a SMILES string. Read-outs that look alike come from different tables or passages of the source.

Chain of Eg5 (P52732 whole entry): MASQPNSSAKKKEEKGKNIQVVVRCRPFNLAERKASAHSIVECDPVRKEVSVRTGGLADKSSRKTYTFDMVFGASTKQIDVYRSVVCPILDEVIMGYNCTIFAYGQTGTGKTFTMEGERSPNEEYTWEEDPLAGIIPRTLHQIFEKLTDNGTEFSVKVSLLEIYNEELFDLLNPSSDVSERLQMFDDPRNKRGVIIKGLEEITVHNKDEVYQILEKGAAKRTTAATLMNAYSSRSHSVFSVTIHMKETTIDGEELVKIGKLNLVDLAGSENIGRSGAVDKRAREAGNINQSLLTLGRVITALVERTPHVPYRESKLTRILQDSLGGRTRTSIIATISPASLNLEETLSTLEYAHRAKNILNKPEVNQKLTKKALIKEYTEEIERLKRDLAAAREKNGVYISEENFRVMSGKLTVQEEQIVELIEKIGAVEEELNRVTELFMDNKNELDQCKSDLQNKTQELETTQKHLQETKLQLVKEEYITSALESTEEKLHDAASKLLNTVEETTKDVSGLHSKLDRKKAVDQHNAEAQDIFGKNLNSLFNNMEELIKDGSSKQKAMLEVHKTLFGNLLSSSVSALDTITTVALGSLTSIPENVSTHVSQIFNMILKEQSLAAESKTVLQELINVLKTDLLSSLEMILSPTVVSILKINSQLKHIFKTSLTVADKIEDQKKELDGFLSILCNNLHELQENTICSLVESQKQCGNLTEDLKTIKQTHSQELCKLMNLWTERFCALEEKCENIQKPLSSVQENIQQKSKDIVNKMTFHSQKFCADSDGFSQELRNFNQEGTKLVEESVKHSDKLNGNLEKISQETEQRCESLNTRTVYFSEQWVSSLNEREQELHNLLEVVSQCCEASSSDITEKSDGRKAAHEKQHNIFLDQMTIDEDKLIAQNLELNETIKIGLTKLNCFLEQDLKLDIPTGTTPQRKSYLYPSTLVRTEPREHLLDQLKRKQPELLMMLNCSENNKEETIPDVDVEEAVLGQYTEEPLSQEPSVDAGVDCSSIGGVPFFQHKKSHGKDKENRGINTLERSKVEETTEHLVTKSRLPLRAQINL

Consider `Cc1ccc(-n2nnnc2/C(=C/N(C)C)C(=O)c2cccc(C(F)(F)F)c2)cc1` [YL001, (Z)-3-(dimethylamino)-2-(1-(p-tolyl)-1H-tetrazol-5-yl)-1-(3-(trifluoromethyl)phenyl)prop-2-en-1-one], for which the EC50 (commonly the concentration needed to bring the measured effect to its halfway point) is 5.94 ± 0.02 µM in the series with CNE-2Z; more than 100 µM with MCF10A (Homo sapiens, MCF-10A, MCF10A, breast normal cell, read-out: EC50 of YL001); 14.6 ± 0.82 µM in the series on Huh7; 14.9 ± 2.57 µM in the series on MCF-7; 9.04 ± 2.19 µM in the series on HCT116; 22.8 ± 0.72 µM in the series on A549. Moreover, the EC50 was 13.9 ± 5.03 µM in the series with B16; 26.2 ± 0.12 µM in the series on U87; 1.18 µM at Eg5; 76.2 ± 0.77 µM with HT1080 (HT1080, fibrosarcoma); more than 70 µM with HT1080 (Homo sapiens, HT-1080, HT1080, fibrosarcoma). This compound also had a Therapeutic window in the series on MCF10A of more than 6.7. In the series with B16 melanoma xenograft (200 mg/kg i.p. daily for 10 days, body weight), the “adverse effects / toxicity” value was “no adverse effects were observed”. Besides, in the series with B16 melanoma xenograft (200 mg/kg i.p. daily for 10 days, tumor volume), the “minimum T/C ratio” value was 0.40. Besides, the Medium survival time in the series on B16 melanoma xenograft (200 mg/kg, B16 tumor-bearing mice) is more than 33 days. In the series on B16 melanoma xenograft (xenograft mouse model, 200 mg/kg i.p. daily), the tumor growth inhibition is listed as 60%. In addition, the maximal therapeutic dose in series [1] is recorded as 200 mg/kg. In [2], the “reaction with nucleophiles (new products by HRMS)” value is “no new products were detected”.

(Values after publication PMC5522084, “Eg5 inhibitor YL001 induces mitotic arrest and inhibits tumor proliferation” (Oncotarget, 2017).)
